Source: ChEMBL document CHEMBL6109146, “Discovery of New Pyrazolone Carbothioamide Derivatives as Potent Antifungal Agents for the Treatment of Candidiasis and Cryptococcosis” (J Med Chem, 2025)
Converted amounts (≈) assume the structure as drawn. The source made the active and inactive calls. The rule behind the calls is not given here.

What was measured:
[1] = system: Cryptococcus neoformans; assay: Antifungal activity against Cryptococcus neoformans H99 assessed as inhibition of fungal growth in presence of 1 to 10 microg/ml Fe(II) ion; format: functional, organism-based
[2] = AUC (0 to infinity) in male ICR mouse at 2 mg/kg, iv measured after 24 hrs by LC-MS/MS analysis; format: ADME, organism-based; settings: in vivo
[3] = system: Cryptococcus neoformans; assay: Antifungal activity against Cryptococcus neoformans H99 infected in cryptococcosis female ICR mouse model assessed as reduction in cysts formation in brain cortex at 5 mg/kg, ip pre-infected with fungi for 3 hrs followed by compound administration and measured after 5 days by H and E staining based analysis; format: functional, organism-based; settings: time 5.0 day
[4] = system: Nakaseomyces glabratus; assay: Upregulation of TRR1 gene expression in Candida glabrata 0161 incubated for 8 hrs by qRT-PCR analysis; format: functional
[5] = system: Cryptococcus neoformans; assay: Induction of morphological changes in Cryptococcus neoformans H99 assessed as vacuole lysis at 4 microg/ml incubated for 8 hrs by transmission electron microscopic analysis; format: functional, organism-based; settings: dose 4.0 µg/ml
[6] = system: Candida albicans; assay: Antifungal activity against Candida albicans 103 assessed as inhibition of fungal growth incubated for 48 to 72 hrs by microplate reader analysis; format: functional, organism-based; settings: time 48-72 hrs
[7] = system: Cryptococcus neoformans; assay: Induction of oxidative damage in Cryptococcus neoformans H99 assessed as increase in MDA level at 4 microg/ml incubated for 24 hrs relative to control; format: functional; settings: dose 4 µg/ml
[8] = system: Nakaseomyces glabratus; assay: Antifungal activity against Candida glabrata 8535 assessed as inhibition of fungal growth incubated for 48 to 72 hrs by microplate reader analysis; format: functional; settings: time 48-72 hrs
[9] = system: Cryptococcus neoformans; assay: Fungicidal activity against Cryptococcus neoformans H99 at 32 microg/ml incubated for 72 hrs by time-kill kinetics analysis; format: functional, organism-based; settings: dose 32.0 µg/ml
[10] = system: Cryptococcus neoformans; assay: Induction of morphological changes in Cryptococcus neoformans H99 assessed as mitochondrial lysis at 4 microg/ml incubated for 8 hrs by transmission electron microscopic analysis; format: functional, organism-based; settings: dose 4.0 µg/ml
[11] = system: Nakaseomyces glabratus; assay: Antifungal activity against Candida glabrata 0161 infected in candidiasis female ICR mouse model assessed as reduction in detachment of renal tubular epithelial cells at 20 mg/kg, ip pre-infected with fungi for 3 hrs followed by compound administration and measured after 5 days by H and E staining based analysis; format: functional, organism-based; settings: time 5.0 day
[12] = system: Nakaseomyces glabratus; assay: Inhibition of biofilm formation in Candida glabrata 0161 at 2 to 32 microg/ml incubated for 24 hrs by XTT reagent based assay; format: functional, organism-based; settings: dose 2-32 µg/ml
[13] = system: Nakaseomyces glabratus; assay: Antifungal activity against Candida glabrata 0161 assessed as inhibition of fungal growth in presence of Fe(II) ion; format: functional, organism-based
[14] = system: Cryptococcus neoformans; assay: Upregulation of TRR1 gene expression in Cryptococcus neoformans H99 at 4 microg/ml incubated for 8 hrs by qRT-PCR analysis; format: functional; settings: dose 4.0 µg/ml
[15] = system: Cryptococcus neoformans; assay: Upregulation of GPX1 gene expression in Cryptococcus neoformans H99 at 4 microg/ml incubated for 8 hrs by qRT-PCR analysis; format: functional; settings: dose 4.0 µg/ml
[16] = system: Nakaseomyces glabratus; assay: Antifungal activity against Candida glabrata 0161 assessed as inhibition of fungal growth at 32 microg/ml incubated for 48 hrs by spot-plating assay; format: functional, organism-based; settings: dose 32.0 µg/ml
[17] = Cytotoxicity against human L02 cells assessed as inhibition of cell proliferation incubated for 48 hrs by WST-8 reagent based assay; format: toxicity
[18] = system: Cryptococcus neoformans; assay: Induction of morphological changes in Cryptococcus neoformans H99 assessed as cell membrane damage by measuring plasmolysis at 4 microg/ml incubated for 8 hrs by transmission electron microscopic analysis; format: functional, organism-based; settings: dose 4.0 µg/ml
[19] = system: Cryptococcus neoformans; assay: Antifungal activity against Cryptococcus neoformans H99 assessed as inhibition of fungal cell colony formation at 0.5 microg/ml incubated for 48 hrs by spot-plating assay; format: functional, organism-based; settings: dose 0.5 µg/ml
[20] = system: Cryptococcus neoformans; assay: Inhibition of capsule formation in Cryptococcus neoformans H99 at 8 microg/ml incubated for 24 hrs by light microscopic analysis; format: functional
[21] = system: Nakaseomyces glabratus; assay: Fungistatic activity against Candida glabrata 0161 assessed as inhibition of fungal growth at 0.031 microg/ml incubated up to 72 hrs by microplate reader analysis; format: functional, organism-based; settings: dose 0.031 µg/ml
[22] = system: [Candida] auris; assay: Antifungal activity against Candida auris 15448 assessed as inhibition of fungal growth incubated for 48 to 72 hrs by microplate reader analysis; format: functional, organism-based; settings: Candidozyma auris, time 48-72 hrs
[23] = system: Nakaseomyces glabratus; assay: Antifungal activity against Candida glabrata 0161 infected in candidiasis female ICR mouse model assessed as tight arrangement of renal tubular epithelial cells at 20 mg/kg, ip pre-infected with fungi for 3 hrs followed by compound administration and measured after 5 days by H and E staining based analysis; format: functional, organism-based; settings: time 5.0 day
[24] = system: Nakaseomyces glabratus; assay: Antifungal activity against Candida glabrata 0161 assessed as inhibition of fungal cell colony formation at 0.5 microg/ml incubated for 48 hrs by spot-plating assay; format: functional, organism-based; settings: dose 0.5 µg/ml
[25] = system: [Candida] auris; assay: Antifungal activity against Candida auris 0029 assessed as inhibition of fungal growth incubated for 48 to 72 hrs by microplate reader analysis; format: functional, organism-based; settings: Candidozyma auris, time 48-72 hrs
[26] = system: Cryptococcus neoformans; assay: Antifungal activity against Cryptococcus neoformans H99 infected in cryptococcosis female ICR mouse model assessed as dense arrangement of neuronal cells at 20 mg/kg, ip pre-infected with fungi for 3 hrs followed by compound administration and measured after 5 days by H and E staining based analysis; format: functional, organism-based; settings: time 5.0 day
[27] = system: Nakaseomyces glabratus; assay: Antifungal activity against Candida glabrata 0161 assessed as inhibition of fungal growth incubated up to 72 hrs by microplate reader analysis; format: functional, organism-based; settings: dose 0.13-0.00049 µg/ml
[28] = system: Cryptococcus neoformans; assay: Antifungal activity against Cryptococcus neoformans H99 assessed as inhibition of fungal growth at <0.0078 microg/ml incubated for 72 hrs by microplate reader analysis; format: functional, organism-based; settings: dose < 0.0078 µg/ml
[29] = system: Cryptococcus neoformans; assay: Antifungal activity against Cryptococcus neoformans H99 assessed as inhibition of fungal growth at 4 microg/ml incubated for 48 hrs by spot-plating assay; format: functional, organism-based; settings: dose 4.0 µg/ml
[30] = system: Cryptococcus neoformans; assay: Upregulation of TRX1 gene expression in Cryptococcus neoformans H99 at 4 microg/ml incubated for 8 hrs by qRT-PCR analysis; format: functional; settings: dose 4.0 µg/ml
[31] = system: Cryptococcus neoformans; assay: Inhibition of biofilm formation in Cryptococcus neoformans H99 at 32 microg/ml incubated for 24 hrs by XTT reagent based assay relative to control; format: functional
[32] = system: Cryptococcus neoformans; assay: Inhibition of melanin production in Cryptococcus neoformans H99 at 0.125 microg/ml by photographic analysis relative to control; format: functional
[33] = system: Cryptococcus neoformans; assay: Antifungal activity against Cryptococcus neoformans H99 infected in cryptococcosis female ICR mouse model assessed as neat arrangement of neuronal cells at 5 to 20 mg/kg, ip pre-infected with fungi for 3 hrs followed by compound administration and measured after 5 days by H and E staining based analysis; format: functional, organism-based; settings: dose 5-20 mg/kg, time 5.0 day
[34] = Antifungal activity against Cryptococcus gattii 01063P assessed as inhibition of fungal growth incubated for 48 to 72 hrs by microplate reader analysis; format: functional; settings: time 48-72 hrs
[35] = system: Nakaseomyces glabratus; assay: Antifungal activity against Candida glabrata 0161 infected in candidiasis female ICR mouse model assessed as reduction in fungal burden in kidney at 20 mg/kg, po pre-infected with fungi for 3 hrs followed by compound administration and measured after 5 days; format: functional, organism-based; settings: time 5.0 day
[36] = system: Cryptococcus neoformans; assay: Induction of ROS accumulation in Cryptococcus neoformans H99 assessed as increase in intracellular ROS level by measuring intense green fluorescence at 4 microg/ml incubated for 24 hrs by DCFH-DA probe based fluorescence microscopic analysis; format: functional, organism-based; settings: dose 4.0 µg/ml
[37] = system: Cryptococcus neoformans; assay: Antifungal activity against Cryptococcus neoformans H99 assessed as inhibition of fungal growth by measuring fold increase in MIC in presence of 10% serum containing transferrin-bound ferric iron and free iron; format: functional

## Nc1cc(=O)n(C(=S)Nc2ccc(C3CCCCC3)cc2)[nH]1
[1]
  Activity: inactive
[2]
  AUC(0-inf): 2100 ng·h/mL
[3]
  Activity: Active
[4]
  Activity: Active
[5]
  Activity: Active
[6]
  Activity: Active
[7]
  Activity: ~20%
[8]
  MIC80: 1.2 10^-4 ug/ml
[9]
  Activity: inactive
[10]
  Activity: Active
[11]
  Activity: Active
[12]
  inhibition: Moderate_effect
[13]
  Activity: inactive
[14]
  Activity: Active
[15]
  Activity: Active
[16]
  Activity: Moderate_effect
[17]
  IC50 at 48 h: 13.9 µg/mL (≈ 44 µM)
[18]
  Activity: Active
[19]
  Activity: Active
[20]
  inhibition at 8 µg/mL: 100%
[21]
  Activity: Active; Significantly Better Activity Observed Than Fluconazole At 8 Microg/Ml
[22]
  Activity: Active
[23]
  Activity: Active
[24]
  Activity: Active
[25]
  Activity: Active
[26]
  Activity: Active
[27]
  Activity: Dose-dependent-effect
[28]
  Activity: Not active; Decrease In Inhibitory Potency Observed
[29]
  Activity: Moderate_effect
[30]
  Activity: Active
[31]
  inhibition at 32 µg/mL: 77%
[32]
  inhibition at 0.125 µg/mL: 100%
[33]
  Activity: Active
[34]
  MIC80: 1.2 10^-4 ug/ml
[35]
  Activity: Active
[36]
  Activity: Active
[37]
  fold change (FC): ~1000
